Measured values as given in PMC7036097 (BioMed Research International, 2020).

target: T1, DPP4 (Homo sapiens, UniProt P27487); experiment: DPPIV-Glo Protease Assay (DPP4 protease inhibition assay); type: biochemical; conditions: in vitro
T1 construct: purchased Sigma
Description: At the same time, the inhibitory effect of other compounds present in tea such as epigallocatechin, epicatechin gallate, epicatechin, and catechin on DPP4 activity was also determined. […] Epigallocatechin, epicatechin gallate, epicatechin, and catechin were obtained from bidepharm (Shanghai, China). Half maximal inhibitory concentration (IC50) values were determined by nonlinear regression in GraphPad Prism 6 software.

T1 sequence (P27487 whole entry): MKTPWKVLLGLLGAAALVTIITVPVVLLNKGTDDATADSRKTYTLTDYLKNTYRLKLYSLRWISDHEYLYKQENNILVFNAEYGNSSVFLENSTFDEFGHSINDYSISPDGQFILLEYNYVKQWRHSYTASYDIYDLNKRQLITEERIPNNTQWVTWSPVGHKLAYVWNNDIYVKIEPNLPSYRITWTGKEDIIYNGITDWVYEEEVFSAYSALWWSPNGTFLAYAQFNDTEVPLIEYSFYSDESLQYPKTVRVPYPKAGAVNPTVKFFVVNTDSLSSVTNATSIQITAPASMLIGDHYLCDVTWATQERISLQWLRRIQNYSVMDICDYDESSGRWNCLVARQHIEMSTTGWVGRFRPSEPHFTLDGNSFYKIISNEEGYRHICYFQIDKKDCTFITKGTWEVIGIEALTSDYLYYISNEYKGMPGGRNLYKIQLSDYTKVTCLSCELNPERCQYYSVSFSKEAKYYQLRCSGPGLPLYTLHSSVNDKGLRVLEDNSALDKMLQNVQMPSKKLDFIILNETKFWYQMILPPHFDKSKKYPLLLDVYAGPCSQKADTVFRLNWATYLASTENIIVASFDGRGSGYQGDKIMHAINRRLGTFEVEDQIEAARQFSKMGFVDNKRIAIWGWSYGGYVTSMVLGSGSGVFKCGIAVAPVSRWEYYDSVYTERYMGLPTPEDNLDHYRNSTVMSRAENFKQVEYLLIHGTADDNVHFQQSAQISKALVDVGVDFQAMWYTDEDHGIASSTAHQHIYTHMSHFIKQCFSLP

First: O=C(OC1Cc2c(O)cc(O)cc2OC1c1cc(O)c(O)c(O)c1)c1cc(O)c(O)c(O)c1 (centres unmarked) [EGCG, Epigallocatechin-3-gallate]
Second: O=C(O[C@@H]1Cc2c(O)cc(O)cc2O[C@@H]1c1ccc(O)c(O)c1)c1cc(O)c(O)c(O)c1 [epicatechin gallate]
The IC50 of the first is 3.8-fold lower: 28.4 µM for the first, 107 µM for the second. The first is the more potent here.

Oc1cc(O)c2c(c1)O[C@H](c1ccc(O)c(O)c1)[C@@H](O)C2 [catechin] and Oc1cc(O)c2c(c1)O[C@H](c1ccc(O)c(O)c1)[C@H](O)C2 [epicatechin] are within 1.5-fold of each other in IC50: 381 µM for the first, 281 µM for the second.

For Oc1cc(O)c2c(c1)O[C@H](c1cc(O)c(O)c(O)c1)[C@H](O)C2 [epigallocatechin], the IC50 was 567 µM.
